Source: the supplement of paper PMC10307832

Assays:
Assay in all cases: relative viability (nuclei count vs DMSO), 5 days (fraction); higher = more cells survive
Vorinostat + OSI-027 = compound: O=C(CCCCCCC(=O)Nc1ccccc1)NO [Vorinostat] + COc1cccc2cc(-c3nc([C@H]4CC[C@H](C(=O)O)CC4)n4ncnc(N)c34)[nH]c12 [OSI-027] (partner 0.5 µM)
Outline: (§1)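 Five library-drug doses in √10 steps were combined with a fixed anchor-drug dose, or a single drug was given alone, by pin tool to lung cancer cell lines in 1536-well plates the day after seeding. Nuclei were stained and counted after 5 days. Relative viability is the nuclei count in treated wells over that in vehicle wells, taken as the median of duplicate plates.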

Vorinostat + Navitoclax = compound: O=C(CCCCCCC(=O)Nc1ccccc1)NO [Vorinostat] + CC1(C)CCC(c2ccc(Cl)cc2)=C(CN2CCN(c3ccc(C(=O)NS(=O)(=O)c4ccc(N[C@H](CCN5CCOCC5)CSc5ccccc5)c(S(=O)(=O)C(F)(F)F)c4)cc3)CC2)C1 [Navitoclax] (partner 0.5 µM)
Outline: as §1

Vorinostat + Foretinib = compound: O=C(CCCCCCC(=O)Nc1ccccc1)NO [Vorinostat] + COc1cc2c(Oc3ccc(NC(=O)C4(C(=O)Nc5ccc(F)cc5)CC4)cc3F)ccnc2cc1OCCCN1CCOCC1 [Foretinib] (partner 0.25 µM)
Outline: as §1

Vorinostat + Olaparib = compound: O=C(CCCCCCC(=O)Nc1ccccc1)NO [Vorinostat] + O=C(c1cc(Cc2n[nH]c(=O)c3ccccc23)ccc1F)N1CCN(C(=O)C2CC2)CC1 [Olaparib] (partner 8 µM)
Outline: as §1

Vorinostat + Alpelisib = compound: O=C(CCCCCCC(=O)Nc1ccccc1)NO [Vorinostat] + Cc1nc(NC(=O)N2CCC[C@H]2C(N)=O)sc1-c1ccnc(C(C)(C)C(F)(F)F)c1 [Alpelisib] (partner 2 µM)
Outline: as §1

| Cell Line | relative viability (Vorinostat + OSI-027; first compound 0.253 µM) | relative viability (Vorinostat + OSI-027; first compound 0.8 µM) | relative viability (Vorinostat + OSI-027; first compound 2.53 µM) | relative viability (Vorinostat + OSI-027; first compound 8 µM) | relative viability (Vorinostat + Navitoclax; first compound 0.253 µM) | relative viability (Vorinostat + Navitoclax; first compound 0.8 µM) | relative viability (Vorinostat + Navitoclax; first compound 2.53 µM) | relative viability (Vorinostat + Navitoclax; first compound 8 µM) | relative viability (Vorinostat + Foretinib; first compound 0.253 µM) | relative viability (Vorinostat + Foretinib; first compound 0.8 µM) | relative viability (Vorinostat + Foretinib; first compound 2.53 µM) | relative viability (Vorinostat + Foretinib; first compound 8 µM) | relative viability (Vorinostat + Olaparib; first compound 0.253 µM) | relative viability (Vorinostat + Olaparib; first compound 0.8 µM) | relative viability (Vorinostat + Olaparib; first compound 2.53 µM) | relative viability (Vorinostat + Olaparib; first compound 8 µM) | relative viability (Vorinostat + Alpelisib; first compound 0.253 µM) | relative viability (Vorinostat + Alpelisib; first compound 0.8 µM) | relative viability (Vorinostat + Alpelisib; first compound 2.53 µM) | relative viability (Vorinostat + Alpelisib; first compound 8 µM) |
| --- | --- | --- | --- | --- | --- | --- | --- | --- | --- | --- | --- | --- | --- | --- | --- | --- | --- | --- | --- | --- |
| HCC-827 | 0.923 | 0.853 | 0.743 | 0.259 | 1.04 | 1.03 | 0.818 | 0.195 | 1.07 | 1.02 | 0.55 | 0.174 | 0.776 | 0.632 | 0.344 | 0.15 | 1.08 | 1.04 | 0.634 | 0.197 |
| LCLC-103H | 0.545 | 0.502 | 0.429 | 0.143 | – | – | – | – | 0.924 | 0.801 | 0.243 | 0.135 | 0.844 | 0.737 | 0.413 | 0.247 | 1.23 | 0.97 | 0.58 | 0.184 |
| NCI-H2009 | 0.793 | 0.795 | 0.254 | 0.0901 | 1.16 | 1.16 | 0.722 | 0.141 | 1.28 | 1.22 | 0.716 | 0.143 | 0.729 | 0.582 | 0.395 | 0.0928 | 1.24 | 1 | 0.633 | 0.187 |
| COR-L 105 | 0.839 | 0.601 | 0.319 | 0.182 | 0.741 | 0.58 | 0.257 | 0.234 | 1.27 | 0.996 | 0.915 | 0.246 | 0.727 | 0.821 | 0.589 | 0.266 | 1.37 | 0.783 | 0.249 | 0.184 |
| NCI-H441 | 0.705 | 0.576 | 0.229 | 0.194 | 0.464 | 0.536 | 0.164 | 0.184 | 0.874 | 0.971 | 0.59 | 0.175 | 0.56 | 0.542 | 0.17 | 0.0865 | 0.754 | 0.616 | 0.289 | 0.11 |
| ChaGo-K-1 | 0.553 | 0.484 | 0.319 | 0.176 | 1.01 | 0.92 | 0.582 | 0.276 | 1 | 0.863 | 0.559 | 0.189 | 0.46 | 0.34 | 0.219 | 0.141 | – | – | – | – |
| EPLC-272H | 0.272 | 0.228 | 0.175 | 0.147 | 0.984 | 1 | 0.242 | 0.0967 | 0.581 | 0.512 | 0.0722 | 0.133 | 0.827 | 0.565 | 0.2 | 0.13 | 0.928 | 0.893 | 0.396 | 0.175 |
| SK-LU-1 | 0.407 | 0.377 | 0.204 | 0.116 | 0.785 | 0.528 | 0.109 | 0.111 | 0.881 | 0.829 | 0.385 | 0.137 | 0.417 | 0.399 | 0.323 | 0.14 | 1.14 | 0.721 | 0.488 | 0.178 |
| NCI-H2228 | 0.767 | 0.452 | 0.203 | 0.0986 | 0.953 | 0.809 | 0.473 | 0.132 | 0.917 | 0.537 | 0.311 | 0.0906 | 0.501 | 0.499 | 0.223 | 0.124 | 0.945 | 0.461 | 0.184 | 0.113 |
| NCI-H1792 | 0.776 | 0.676 | 0.511 | 0.1 | 0.763 | 0.601 | 0.392 | 0.0388 | – | – | – | – | 0.235 | 0.218 | 0.0385 | 0.0192 | 0.742 | 0.55 | 0.207 | 0.0419 |
| NCI-H1563 | 0.787 | 0.692 | 0.577 | 0.549 | – | – | – | – | 0.999 | 0.833 | 0.574 | 0.52 | – | – | – | – | 0.93 | 0.8 | 0.642 | 0.555 |
| NCI-H661 | 0.79 | 0.665 | 0.297 | 0.245 | – | – | – | – | 1.11 | 0.843 | 0.447 | 0.298 | 0.767 | 0.569 | 0.392 | 0.323 | 1.23 | 1.09 | 0.491 | 0.171 |
| NCI-H1703 | – | – | – | – | 1.46 | 1.47 | 0.888 | 0.161 | 0.418 | 0.599 | 0.632 | 0.277 | 0.407 | 0.51 | 0.625 | 0.157 | 0.469 | 0.525 | 0.594 | 0.156 |
| NCI-H358 | 1.14 | 0.793 | 0.189 | 0.0874 | – | – | – | – | 1.01 | 0.649 | 0.154 | 0.0783 | 0.722 | 0.609 | 0.227 | 0.0636 | 1.05 | 0.939 | 0.226 | 0.177 |
| ABC-1 | 0.491 | 0.352 | 0.159 | 0.102 | – | – | – | – | 1.07 | 0.834 | 0.358 | 0.102 | 1.02 | 1.3 | 0.78 | 0.196 | 1.02 | 0.636 | 0.354 | 0.161 |
| HCC-44 | 0.611 | 0.281 | 0.103 | 0.254 | 0.986 | 0.967 | 0.542 | 0.137 | – | – | – | – | 1.04 | 1.05 | 0.658 | 0.317 | 0.896 | 0.587 | 0.186 | 0.0876 |
| IA-LM | – | – | – | – | 0.791 | 0.597 | 0.235 | 0.0188 | 1.17 | 1.14 | 0.342 | 0.039 | 0.911 | 0.701 | 0.405 | 0.0749 | 0.769 | 0.512 | 0.224 | 0.0622 |
| SW 900 | 0.49 | 0.472 | 0.227 | 0.0866 | – | – | – | – | 0.925 | 0.927 | 0.644 | 0.111 | 0.901 | 0.589 | 0.192 | 0.113 | – | – | – | – |
